# Measured values reported in patent US20200163984A1, “USE OF ISOVALERYL SPIRAMYCIN I, II AND/OR III IN MANUFACTURING MEDICAMENT FOR TREATING AND/OR PREVENTING TUMOR, AND MEDICAMENT” (SHENYANG FUYANG PHARMACEUTICAL TECHNOLOGY CO., LTD., priority 2017, published 2020).
# How the values were obtained:
# [1] = Thymus index and spleen index of H22 liver cancer tumor-bearing mice
# Experimental: In the H22 liver cancer model, the mice inoculated with the tumor were randomly divided into groups with 10 mice in each group on the next day of inoculation. The groups included: a model control group, a positive drug cyclophosphamide control group (CTX, 26 mg/kg), isovaleryl spiramycin I groups with doses of 13, 26 and 52 mg/kg; isovaleryl spiramycin II groups with doses of 13, 26 and 52 mg/kg; isovaleryl spiramycin III groups with doses of 13, 26 and 52 mg/kg. Each group was continuously administered intragastrically for 7 days with a dose of 20 ml/kg.
# [2] = system: transplanted tumor of human renal cell adenocarcinoma cell 769-P; assay: 769-P transplanted tumor in nude mice; details: for Tumor Volume (mm3) (d 1): d1
# Experimental: (§1) Then cell concentration was adjusted to 1×10^7/ml with matrigel, then each nude mouse was inoculated subcutaneously with 0.2 ml of cells at its right armpit and recorded as the first day of inoculation. When the tumor grows to be greater than or equal to 100 mm^3, the mice were randomly divided into 11 groups with 6 mice in each group: a model group, a cyclophosphamide group, isovaleryl spiramycin I groups with doses of 25, 50 and 100 mg/kg, isovaleryl spiramycin II groups with doses of 25, 50 and 100 mg/kg, and isovaleryl spiramycin III groups with doses of 25, 50 and 100 mg/kg. Each group was continuously administered intragastrically for 30 days with a dose of 20 ml/kg. The mice were sacrificed the next day after drug withdrawal and the indicators were tested. The long diameter and short diameter of the tumor, and the weight of each mouse were recorded every 3 days from drug administration to nude mouse sacrifice.
# (§2) The body weight of the nude mice and the long diameter (a) and short diameter (b) of the transplanted tumor were measured every 3 days, and the tumor volume (v), relative tumor volume (RTV) and relative tumor proliferation rate (T/C) are calculated respectively according to the following formulas, wherein V=a×b^2/2; RTV=V/V0 (V0 is the tumor volume before administration, V is the tumor volume before sacrifice), and T/C (%)=treatment group RTV/model control group RTV×100%.
# (§3) Each mouse was weighed and sacrificed. After the tumor was completely stripped off from the body of the mouse, the non-tumor tissues such as blood stains and fat were removed to weigh the tumor and calculate the tumor growth inhibition rate. The average tumor weight of each group of mice is used as an indicator of efficacy. Tumor growth inhibition rate (%)=(1−the average tumor weight of the treatment group/the average tumor weight of the model group)×100%.
# [3] = system: transplanted tumor of human large cell lung cancer H460 cells; assay: H460 transplanted tumor in nude mice
# Experimental: as §1, with “each group: isovaleryl spiramycin” for “each group: a model group, a cyclophosphamide group, isovaleryl spiramycin”, “and the body weight of” for “and the weight of”
# as §2, §3
# [4] = system: transplanted tumor of human thyroid cancer cell TPC-1; assay: TPC-1 transplanted tumor in nude mice; details: for Tumor Volume (mm3) (d30): d 30
# Experimental: as §1, with “each group: isovaleryl spiramycin” for “each group: a model group, a cyclophosphamide group, isovaleryl spiramycin”, “and the body weight of” for “and the weight of”
# as §2, §3
# [5] = 769-P, high dose (100 mg/kg in method) i.g. 30 days
# [6] = 769-P, low dose (25 mg/kg in method) i.g. 30 days
# [7] = 769-P, medium dose (50 mg/kg in method) i.g. 30 days
# [8] = H460, 25 mg/kg (low dose) i.g. 30 days
# [9] = H460, 50 mg/kg (medium dose) i.g. 30 days
# [10] = H460, 100 mg/kg (high dose) i.g. 30 days
# [11] = TPC-1, high dose (100 mg/kg in method) i.g. 30 days
# [12] = TPC-1, low dose (25 mg/kg in method) i.g. 30 days
# [13] = TPC-1, medium dose (50 mg/kg in method) i.g. 30 days
structure (smiles),measurement,setting,value
"COC1C(OC(C)=O)CC(=O)OC(C)CC=CC=CC(OC2CCC(N(C)C)C(C)O2)C(C)CC(CC=O)C1OC1OC(C)C(OC2CC(C)(O)C(OC(=O)CC(C)C)C(C)O2)C(N(C)C)C1O (stereo not drawn) [Isovaleryl spiramycin II, isovaleryl spiramycin II]",Spleen Index (%),[1]; dose 13 mg/kg,0.59 ± 0.24%
same,Thymus Index (%),[1]; dose 13 mg/kg,0.12 ± 0.05%
same,Spleen Index (%),[1]; dose 26 mg/kg,0.68 ± 0.24%
same,Thymus Index (%),[1]; dose 26 mg/kg,0.16 ± 0.03%
same,Spleen Index (%),[1]; dose 52 mg/kg,0.64 ± 0.17%
same,Thymus Index (%),[1]; dose 52 mg/kg,0.17 ± 0.10%
same,Inhibition Rate (%),"[2]; 769-P nude mice, 25 mg/kg",38.29%
same,Relative Tumor Proliferation Rate (T/C),"[2]; 769-P nude mice, 25 mg/kg",68.22%
same,Relative Tumor Volume (RTV),"[2]; 769-P nude mice, 25 mg/kg",12.59 ± 5.32
same,Tumor Weight,"[2]; 769-P nude mice, 25 mg/kg",1.27 ± 0.42 g
same,Tumor Volume (mm3) (d 1),"[2]; 769-P nude mice, 25 mg/kg",162.50 ± 59.24 mm3
same,Tumor Volume (mm3) (d30),"[2]; 769-P nude mice, 25 mg/kg",2045.85 ± 301.35 mm3
same,Inhibition Rate (%),"[2]; 769-P nude mice, 50 mg/kg",47.61%
same,Relative Tumor Proliferation Rate (T/C),"[2]; 769-P nude mice, 50 mg/kg",42.64%
same,Relative Tumor Volume (RTV),"[2]; 769-P nude mice, 50 mg/kg",7.87 ± 2.29
same,Tumor Weight,"[2]; 769-P nude mice, 50 mg/kg",1.3 ± 0.23 g
same,Tumor Volume (mm3) (d 1),"[2]; 769-P nude mice, 50 mg/kg",193.10 ± 35.41 mm3
same,Tumor Volume (mm3) (d30),"[2]; 769-P nude mice, 50 mg/kg",1519.68 ± 239.38 mm3
same,Inhibition Rate (%),"[2]; 769-P nude mice, 100 mg/kg",61.79%
same,Relative Tumor Proliferation Rate (T/C),"[2]; 769-P nude mice, 100 mg/kg",34.76%
same,Relative Tumor Volume (RTV),"[2]; 769-P nude mice, 100 mg/kg",6.42 ± 0.99
same,Tumor Weight,"[2]; 769-P nude mice, 100 mg/kg",0.79 ± 0.06 g
same,Tumor Volume (mm3) (d 1),"[2]; 769-P nude mice, 100 mg/kg",109.14 ± 10.13 mm3
same,Tumor Volume (mm3) (d30),"[2]; 769-P nude mice, 100 mg/kg",700.14 ± 100.08 mm3
same,Relative Tumor Proliferation Rate (T/C),[2]; [5],34.76%
same,tumor growth inhibition rate,[2]; [5],61.79%
same,Relative Tumor Proliferation Rate (T/C),[2]; [6],68.22%
same,tumor growth inhibition rate,[2]; [6],38.29%
same,tumor volume and relative tumor volume compared with the model group,"[2]; 769-P, low, medium and high doses, P<0.05",significantly lower
same,Relative Tumor Proliferation Rate (T/C),[2]; [7],42.64%
same,tumor growth inhibition rate,[2]; [7],47.61%
same,mouse weight compared with the model group,"[2]; mouse, in vivo",no significant changes
same,Body Weight (g) (d1),"[2]; mouse, in vivo, 25 mg/kg",22.17 ± 1.47 g
same,Body Weight (g) (d30),"[2]; mouse, in vivo, 25 mg/kg",22.05 ± 0.71 g
same,Body Weight (g) (d1),"[2]; mouse, in vivo, 50 mg/kg",22.07 ± 1.52 g
same,Body Weight (g) (d30),"[2]; mouse, in vivo, 50 mg/kg",22.42 ± 0.54 g
same,Body Weight (g) (d1),"[2]; mouse, in vivo, 100 mg/kg",21.96 ± 1.19 g
same,Body Weight (g) (d30),"[2]; mouse, in vivo, 100 mg/kg",22.33 ± 0.41 g
same,Inhibition Rate (tumor growth inhibition rate),[3]; [8],14.22%
same,Relative Tumor Proliferation Rate (T/C),[3]; [8],51.97%
same,Relative Tumor Volume (RTV),[3]; [8],5.46 ± 1.87
same,Tumor Volume (d 1),[3]; [8],147.44 ± 15.40 mm3
same,Tumor Volume (d 30),[3]; [8],804.17 ± 292.57 mm3
same,Tumor Weight,[3]; [8],1.48 ± 0.24 g
same,Inhibition Rate (tumor growth inhibition rate),[3]; [9],34.43%
same,Relative Tumor Proliferation Rate (T/C),[3]; [9],46.49%
same,Relative Tumor Volume (RTV),[3]; [9],4.88 ± 1.36
same,Tumor Volume (d 1),[3]; [9],146.77 ± 18.26 mm3
same,Tumor Volume (d 30),[3]; [9],700.40 ± 143.83 mm3
same,Tumor Weight,[3]; [9],1.13 ± 0.08 g
same,Inhibition Rate (tumor growth inhibition rate),[3]; [10],61.12%
same,Relative Tumor Proliferation Rate (T/C),[3]; [10],37.89%
same,Relative Tumor Volume (RTV),[3]; [10],3.98 ± 1.10
same,Tumor Volume (d 1),[3]; [10],149.76 ± 13.12 mm3
same,Tumor Volume (d 30),[3]; [10],604.38 ± 195.98 mm3
same,Tumor Weight,[3]; [10],0.67 ± 0.20 g
same,tumor volume and relative tumor volume compared with the model group,"[3]; H460, low, medium and high doses, P<0.05",significantly lower
same,mouse weight compared with the model group,"[3]; mouse, in vivo",no significant changes
same,Relative Tumor Proliferation Rate (T/C),[4]; [11],38.61%
same,tumor growth inhibition rate,[4]; [11],62.04%
same,Relative Tumor Proliferation Rate (T/C),[4]; [12],86.15%
same,tumor growth inhibition rate,[4]; [12],20.91%
same,tumor volume and relative tumor volume compared with the model group,"[4]; TPC-1, low, medium and high doses, P<0.05",significantly lower
same,Relative Tumor Proliferation Rate (T/C),[4]; [13],59.08%
same,tumor growth inhibition rate,[4]; [13],31.61%
same,Inhibition Rate (%),[4]; dose 25 mg/kg,20.91%
same,Relative Tumor Proliferation Rate (T/C),[4]; dose 25 mg/kg,86.15%
same,Relative Tumor Volume (RTV),[4]; dose 25 mg/kg,14.18 ± 1.70
same,Tumor Weight,[4]; dose 25 mg/kg,1.91 ± 0.33 g
same,Tumor Volume (mm3) (d 1),[4]; dose 25 mg/kg,119.12 ± 3.42 mm3
same,Tumor Volume (mm3) (d30),[4]; dose 25 mg/kg,1689.63 ± 210.37 mm3
same,Inhibition Rate (%),[4]; dose 50 mg/kg,31.61%
same,Relative Tumor Proliferation Rate (T/C),[4]; dose 50 mg/kg,59.08%
same,Relative Tumor Volume (RTV),[4]; dose 50 mg/kg,9.72 ± 3.02
same,Tumor Weight,[4]; dose 50 mg/kg,1.65 ± 0.32 g
same,Tumor Volume (mm3) (d 1),[4]; dose 50 mg/kg,118.54 ± 6.49 mm3
same,Tumor Volume (mm3) (d30),[4]; dose 50 mg/kg,1148.57 ± 344.78 mm3
same,Inhibition Rate (%),[4]; dose 100 mg/kg,62.04%
same,Relative Tumor Proliferation Rate (T/C),[4]; dose 100 mg/kg,38.61%
same,Relative Tumor Volume (RTV),[4]; dose 100 mg/kg,6.36 ± 2.38
same,Tumor Weight,[4]; dose 100 mg/kg,0.92 ± 0.42 g
same,Tumor Volume (mm3) (d 1),[4]; dose 100 mg/kg,117.30 ± 6.48 mm3
same,Tumor Volume (mm3) (d30),[4]; dose 100 mg/kg,754.42 ± 320.69 mm3
same,mouse weight compared with the model group,"[4]; mouse, in vivo",no significant changes
same,Body Weight (g) (d1),"[4]; mouse, in vivo, 25 mg/kg",20.54 ± 1.45 g
same,Body Weight (g) (d30),"[4]; mouse, in vivo, 25 mg/kg",21.16 ± 1.37 g
same,Body Weight (g) (d1),"[4]; mouse, in vivo, 50 mg/kg",20.07 ± 1.13 g
same,Body Weight (g) (d30),"[4]; mouse, in vivo, 50 mg/kg",12.45 ± 1.63 g
same,Body Weight (g) (d1),"[4]; mouse, in vivo, 100 mg/kg",21.78 ± 1.53 g
same,Body Weight (g) (d30),"[4]; mouse, in vivo, 100 mg/kg",12.11 ± 1.20 g
